From patent publication US7892833B2, “Using inhibitors of histone deacetylases for the suppression therapy of inherited disease predisposing conditions” (TopoTarget Germany AG, priority 2003, dated 2011)
Entries after “also recorded” stand apart in the source; their conditions may differ.

How the values were obtained:
[1] = tested on: cell lines with proven mutations of crucial genes; experiment: Cell viability assay (MTT test); assay type: cell-based; details: 0.5 to 3 mM, 40 h to 70 h, all the cell lines tested, vs. untreated cells
Method: In FIG. 1 cell lines are listed with proven mutations of crucial genes which in an inherited way establish a condition that predisposes a person to develop a disorder. The cells were grown in the respective medium as described in FIG. 1.
The cell lines listed in table 1 were seeded in 96 well plates at a density of 1×10^4 cells/well in normal growth medium. 2-propyl pentanoic acid was added at final concentrations between 0.5 and 3 mM to triplicate samples and the cells were incubated for 40 h to 70 h. Control cells were grown in the absence of 2-propyl pentanoic acid. Ten μl of 10 mg/ml 3-(4,5-dimethylthiazole-2-yl)-2,5 diphenyltetrazolium bromide (MTT) (Sigma, Deisenhofen, Germany) in PBS were added to each well and the cells were incubated for another 3 h. Cells were lysed by the addition of 90 μl of lysis buffer (20% SDS in 50% dimethyl formamide, pH 4.7). After solubilization of the formazan product, the absorption at 590 nm was determined in a microplate reader (Dynatech, Denkendorf, Germany) and the relative amount of viable cells in comparison to cells grown without the addition of 2-propyl pentanoic acid was determined.

[2] = tested on: C57BL/6J-APC^min mice; experiment: APC^min mouse model, adenoma count after four weeks of treatment; assay type: in vivo
Method: Ten to sixteen weeks old age- and sex-matched heterozygous C57BL/6J-APC^min mice (Jackson Laboratories, Bar Harbor, Me.) were either left untreated or were treated with 2-PPA or Celecoxib. Control animal were injected (i.p.) with PBS. 2-PPA was injected as isotonic aequous solution of the sodium salt (2×400 mg/kg/day) for four weeks, while Celecoxib was fed to the animals ad libidum at 1250 ppm (0, 12%) for four weeks. At necropsy entire intestinal tracts were opened longitudinally and fixed in 10% phosphate buffered formaldehyde for 24 h. Polyp contrast was increased performing a 1 min staining in 0.1% methylene blue prior to determination of polyp numbers and sizes under a dissecting microscope by two independent observers unaware of the treatment that the mice had received.

[3] = tested on: Human immortalized keratinocytes (HaCaT cells); experiment: Cytokine mRNA by semiquantitative RT-PCR in LPS-stimulated keratinocytes; assay type: cell-based; details: 4 h preincubation (200 nM TSA or 5 mM 2PPA), LPS 24 h; for level of IL-6 mRNA / level of TNF-α mRNA: vs. untreated stimulated control
Method: Human immortalized keratinocytes (HaCaT cells) were seeded at a density of 2.5 million cells per ml into 75 cm^2 flasks. […] After 24 hours at 37° C. cells were lysed and total RNA was isolated using the RNeasy mini kit from Qiagen.
(§1) One microgram of total RNA was transcribed to cDNA by standard methods using reverse transcriptase and an oligo-dT primer (Invitrogen). For semiquantitative PCR, 2 μl of cDNA was amplified by PCR using specific primers. Primers for PCR were synthesized by MWG and are as follows: […]

[4] = tested on: Peripheral blood lymphocytes (PBL's); experiment: Cytokine mRNA by semiquantitative RT-PCR in PMA/Ion-stimulated PBLs; assay type: cell-based, human; details: for IL-6 mRNA / PMA/Ion mediated stimulation of IL-4 mRNA: 2 h preincubation, PMA/Ion 24 h; for modulation of cytokine expression: PMA/Ion, FIGS. 4A and B
Method: (§2) Monocyte and macrophage depleted peripheral blood mononuclear cells were obtained from consenting adults via separation using Ficoll-Hypaque. The peripheral blood mononuclear cells (PBMC) fraction was washed and seeded in 9 cm petri dishes. After an incubation of 2 hours at 37° C. to remove most of the monocytes, macrophages, and B-cells, the non-adherent cells were collected and cultured in 175cm^2 flasks for 2 days. Cells were harvested and adjusted to 3 million cells per ml. Aliquots of 500μl were transferred to each well of 24-well flat bottom plates. Peripheral blood lymphocytes (PBL's) were treated with various concentrations of HDAC inhibitors as indicated. After a 2 hour incubation time at 37°C cells were stimulated with phorbol 12-myristate 13-acetate (PMA) / ionomycin (Ion) or activated via T cell receptor (TCR/CD3) complex with 10μg/m1 anti-CD3 mAb (OKT3) and 2.5μg/ml anti-CD28 mAb. After 24 hours at 37° C. the supernatant was removed and frozen for cytokine assays. Cell pellets were lysed and total RNA was isolated using the RNeasy mini kit from Qiagen.
as §1

[5] = tested on: IL-2; experiment: IL-2 ELISA of PBL supernatants; assay type: cell-based, human; details: for secretion of IL-2 / concentration of maximal inhibition of IL-2 expression: CD3/CD28; for secretion of IL-2 / IL-2 secretion, dose-response / concentration of maximal inhibition of IL-2 expression: FIG. 6; for IL-2 secretion, dose-response / concentration of maximal inhibition of IL-2 expression: PBLs; for IL-2 secretion, dose-response: 2 h preincubation, CD3 and CD28 mAbs 24 h
Method: as §2
(§3) To perform ELISA's, supernatants of treated and untreated PBL's were collected and IL-2 as well as TNF-α were measured using the Duo Set ELISA Development System (R&D Systems) as described by the manufacturer.

[6] = tested on: TNF-α; experiment: TNF-α ELISA of PBL supernatants; assay type: cell-based, human; details: for TNF-α secretion, dose-response / concentration of maximal inhibition of TNF-α expression: PBLs, FIG. 6; for TNF-α secretion, dose-response: 2 h preincubation, CD3 and CD28 mAbs 24 h; for concentration of maximal inhibition of TNF-α expression: CD3/CD28
Method: as §2, §3

[7] = tested on: Acetylated histones H3 and H4 and the marker gene HDAC-2; experiment: Western blot of peripheral blood cells from patients treated with 2PPA (phase I/II); assay type: in vivo, human; details: 2PPA intravenously, before, 6 h, 24 h, 48 h
Method: Whole cell extracts were prepared by lysis of cells in RIPA buffer including protease inhibitors. Lysates were separated by SDS gel electrophoresis and transferred onto PVDF membranes. Acetylated histones H3 and H4 and the marker gene HDAC-2 were detected by western blot analysis using an anti-acetylated H3 antibody (Upstate, #06-942), an anti-acetylated H4 antibody (clon T25; patent application EP 02.021984.6), and an anti-HDAC-2 antibody (SCBT, SC-7899). As an equal loading control PVDF membranes were stained with Coomassie (FIG. 9).

[8] = tested on: Peripheral blood cells; experiment: Cytokine ELISA and RT-PCR in peripheral blood cells from a patient treated with 2PPA; assay type: in vivo, human
Method: The cells were either left unstimulated or stimulated with CD3 and CD28 antibodies. After 24 hours at 37° C. the supernatant was collected and the secretion of IL-2 and TNF-α was quantified by ELISA (R&D Systems) (FIGS. 10A and B).
Total RNA from unstimulated and CD3/CD28 stimulated cells was isolated using the RNeasy mini kit (Qiagen). One microgram of total RNA was converted to cDNA by standard methods using reverse transcriptase and an oligo-dT primer (Invitrogen). For semiquantitative PCR, 2 μl of cDNA were amplified by PCR using the specific primers as described above (FIG. 10C).

[9] = EP application No. 03014278.0; cited from earlier work
[10] = tested on: stage III/IV non-small cell lung cancer; details: monotherapy; Keer et al., 2002; cited from earlier work
[11] = tested on: PPARδ; details: cited from earlier work
[12] = tested on: acute promyelocytic leukemia; details: PML-RAR patient with multiple relapses after retinoic acid; Warrell et al., 1998; cited from earlier work
[13] = 1 mM, other experiments, PMA/ION and CD3/CD28, FIG. 7
[14] = starting at 24 hours of 2PPA treatment

CCCC(CCC)C(=O)O [2PPA, 2-propyl-pentanoic acid]
inhibition of cell viability [1]: 20-80%
number of colorectal adenomas ([2]; APC^min mice treated for 4 weeks, FIG. 2 legend): reduction in the number of colorectal adenomas
number of adenomas in the small intestine ([2]; four weeks, 2-PPA sodium salt i.p. 2×400 mg/kg/day, Celecoxib 1250 ppm in feed, FIG. 2A, 400 mg/kg/day): reduces adenoma formation; also recorded: clearly reduces the number of adenomas
abnormalities in the gastrointestinal tract ([2]; mouse, in vivo): did not show any abnormalities in the gastrointestinal tract
mRNA transcript of IFN-γ [3]: significantly reduced
level of IL-6 mRNA [3]: significant decrease
level of TNF-α mRNA [3]: significant decrease
IL-6 mRNA [4]: decreased IL-6 mRNA back to the level seen in the unstimulated sample
PMA/Ion mediated stimulation of IL-4 mRNA [4]: significantly reduced
secretion of IL-2 ([5]; 0.5 mM): only moderate effect
secretion of IL-2 ([5]; 1 mM): only moderate effect
IL-2 secretion [5, 13]: significant decrease
secretion of IL-2 ([5]; 5 mM): significantly reduced
IL-2 secretion, dose-response [5]: dose-dependent inhibition
TNF-α secretion [6, 13]: significant decrease
TNF-α secretion, dose-response [6]: dose-dependent inhibition
Histone H3 and H4 acetylation in peripheral blood cells [7]: Histone H3 and H4 hyperacetylation
marker protein HDAC-2 in peripheral blood cells [7]: down-regulation of the marker protein HDAC-2
IL-2 mRNA transcripts ([8]; CD3/CD28 stimulated): decrease
TNF-α mRNA transcripts ([8]; CD3/CD28 stimulated): decrease
IL-2 in the culture supernatant (ELISA) ([8]; CD3/CD28 stimulated 24 h): modulates the expression
TNF-α in the culture supernatant (ELISA) ([8]; CD3/CD28 stimulated 24 h): modulates the expression
cytokine mRNA expression of IFN-γ [8, 14]: significantly reduced
cytokine mRNA expression of IL-4 [8, 14]: significantly reduced
skin permeation [9]: permeates human skin effectively

Cc1ccc(-c2cc(C(F)(F)F)nn2-c2ccc(S(N)(=O)=O)cc2)cc1 [Celecoxib]
abnormalities in the gastrointestinal tract ([2]; APC^min mice after four weeks of treatment, FIG. 2B): intensely inflated stomach, small intestine, and colon

O=C(CCC1CCCC1)NO [G2M-701]
modulation of cytokine expression [4]: can modulate cytokine expression
IL-2 secretion, dose-response [5]: dose-dependent inhibition
concentration of maximal inhibition of IL-2 expression [5]: 6 µM
TNF-α secretion, dose-response [6]: dose-dependent inhibition
concentration of maximal inhibition of TNF-α expression [6]: 6 µM

O=C(CCC1CCCCC1)NO [G2M-702]
modulation of cytokine expression [4]: can modulate cytokine expression
IL-2 secretion, dose-response [5]: dose-dependent inhibition
concentration of maximal inhibition of IL-2 expression [5]: 3 µM
TNF-α secretion, dose-response [6]: dose-dependent inhibition
concentration of maximal inhibition of TNF-α expression [6]: 3 µM

O=C(/C=C/C1CCCCC1)NO [G2M-707]
modulation of cytokine expression [4]: can modulate cytokine expression
IL-2 secretion, dose-response [5]: dose-dependent inhibition
concentration of maximal inhibition of IL-2 expression [5]: 1 µM
TNF-α secretion, dose-response [6]: dose-dependent inhibition
concentration of maximal inhibition of TNF-α expression [6]: 1 µM

CCCC(=O)OCOC(=O)C(C)(C)C [Pivanex, Pivaloyloxymethyl butyrate]
clinical activity [10]: activity in stage III/IV non-small cell lung cancer

O=C(CCCCCCC(=O)Nc1ccccc1)NO [SAHA, suberoylanilide hydroxamic acid]
modulation of cytokine expression [4]: can modulate cytokine expression

CC(/C=C/C(=O)NO)=C\[C@@H](C)C(=O)c1ccc(N(C)C)cc1 [TSA, Trichostatin A]
mRNA transcript of IFN-γ [3]: virtually unaffected
level of IL-6 mRNA [3]: significant decrease
level of TNF-α mRNA [3]: significant decrease
IL-6 mRNA [4]: only moderate effects
PMA/Ion mediated stimulation of IL-4 mRNA [4]: significantly reduced
activation of PPARδ [11]: activates PPARδ

phenylbutyrate
clinical outcome [12]: complete remission of the leukemia
